Experimental data from ChEMBL document CHEMBL5370641, “Structure-Based Optimization and Biological Evaluation of Potent and Selective MMP-7 Inhibitors for Kidney Fibrosis” (J Med Chem, 2023).
Active and inactive are the calls of the source. The rule behind the calls is not given here. Numbered stars: 1 amine (or outer) side, 2 acyl side, 3 side chain; on linkers, the order of the positions; unused ones are H or OH. Square brackets hold non-standard residues; d marks the D form. Peptide text beside a SMILES is read from it. * marks the point of attachment. Benzenesulfonyl(4-Cl,3-CF3) = O=S(=O)(c1ccc(Cl)c(C(F)(F)F)c1)*; γGlu = O=C(O)[C@H](CCC(=O)[*:2])N[*:1]; 4Pal = N[C@@H](Cc1ccncc1)C(=O)O; Tle = CC(C)(C)[C@H](N)C(=O)O; β3hP = O=C(O)C[C@@H]1CCCN1

Key:
Homo sapiens [1] = species: Homo sapiens; assay: Selectivity ratio of IC50 for inhibition of recombinant human MMP12 to IC50 for inhibition of recombinant human MMP7
Homo sapiens [2] = species: Homo sapiens; assay: Selectivity ratio of IC50 for inhibition of recombinant human MMP8 to IC50 for inhibition of recombinant human MMP7
Homo sapiens [3] = species: Homo sapiens; assay: Selectivity ratio of IC50 for inhibition of recombinant human MMP14 to IC50 for inhibition of recombinant human MMP7
Neutrophil collagenase = Neutrophil collagenase (Homo sapiens, UniProt P22894); assay: Inhibition of recombinant human MMP8 using MOCAc-Pro-Leu-Gly-Leu-A2pr-(Dnp)-Ala-Arg-NH2 as substrate preincubated with compound for 15 mins followed by substrate addition and measured after 1 hrs by fluorescence based analysis
[4] = Protein binding in mouse serum incubated for 4 hrs by equilibrium dialysis based LC-MS/MS analysis; assay type: ADME, cell-free; conditions: read-out: PB (converted)
Homo sapiens [5] = species: Homo sapiens; assay: Selectivity ratio of IC50 for inhibition of recombinant human MMP3 to IC50 for inhibition of recombinant human MMP7
Homo sapiens [6] = species: Homo sapiens; assay: Selectivity ratio of IC50 for inhibition of recombinant human MMP13 to IC50 for inhibition of recombinant human MMP7
[7] = Protein binding in human serum incubated for 4 hrs by equilibrium dialysis based LC-MS/MS analysis; assay type: ADME, cell-free; conditions: read-out: PB (converted)
Stromelysin-1 = Stromelysin-1 (Homo sapiens, UniProt P08254); assay: Inhibition of recombinant human MMP3 using MOCAc-Arg-Pro-Lys-Pro-Val-Glu-Nva-Trp-Arg-Lys(Dnp)-NH2 as substrate preincubated with compound for 15 mins followed by substrate addition and measured after 1 hrs by fluorescence based analysis
Homo sapiens [8] = species: Homo sapiens; assay: Selectivity ratio of IC50 for inhibition of recombinant human MMP9 to IC50 for inhibition of recombinant human MMP7
Homo sapiens [9] = species: Homo sapiens; assay: Selectivity ratio of IC50 for inhibition of recombinant human MMP1 to IC50 for inhibition of recombinant human MMP7
[10] = target: 72 kDa type IV collagenase (Homo sapiens, UniProt P08253); assay: Inhibition of recombinant human MMP2 using MOCAc-Pro-Leu-Gly-Leu-A2pr-(Dnp)-Ala-Arg-NH2 as substrate preincubated with compound for 15 mins followed by substrate addition and measured after 1 hrs by fluorescence based analysis
[11] = Total clearance in Sprague-Dawley rat at 1 mg/kg, iv administered as single dose by LC-MS/MS analysis; assay type: ADME, organism-based; conditions: in vivo
[12] = Lipophilicity, logD of compound at pH 7.4 by HPLC-UV analysis; assay type: physicochemical; conditions: buffer
[13] = Volume of distribution at steady state in Sprague-Dawley rat at 1 mg/kg, iv administered as single dose by LC-MS/MS analysis; assay type: ADME, organism-based; conditions: in vivo, read-out: Vdss
Matrilysin [14] = target: T1, Matrilysin (Mus musculus, UniProt Q10738); assay: Inhibition of mouse MMP7 using MOCAc-Pro-Leu-Gly-Leu-A2pr-(Dnp)-Ala-Arg-NH2 as substrate preincubated with compound for 15 mins followed by substrate addition and measured after 2 hrs by fluorescence based analysis
T1 sequence (Q10738 whole entry): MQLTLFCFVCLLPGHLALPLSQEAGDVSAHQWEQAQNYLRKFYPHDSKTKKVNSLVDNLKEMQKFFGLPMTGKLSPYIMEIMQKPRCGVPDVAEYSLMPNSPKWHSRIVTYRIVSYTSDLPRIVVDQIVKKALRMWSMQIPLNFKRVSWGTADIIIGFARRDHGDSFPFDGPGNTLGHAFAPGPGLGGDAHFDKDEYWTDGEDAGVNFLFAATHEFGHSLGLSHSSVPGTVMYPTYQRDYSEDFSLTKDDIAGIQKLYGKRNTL

Interstitial collagenase = target: T2, Interstitial collagenase (Homo sapiens, UniProt P03956); assay: Inhibition of recombinant human MMP1 using MOCAc-Lys-Pro-Leu-Gly-Leu-A2pr(Dnp)-Ala-Arg-NH2 as substrate preincubated with compound for 15 mins followed by substrate addition and measured after 1 hrs by fluorescence based analysis
T2 sequence (P03956 whole entry): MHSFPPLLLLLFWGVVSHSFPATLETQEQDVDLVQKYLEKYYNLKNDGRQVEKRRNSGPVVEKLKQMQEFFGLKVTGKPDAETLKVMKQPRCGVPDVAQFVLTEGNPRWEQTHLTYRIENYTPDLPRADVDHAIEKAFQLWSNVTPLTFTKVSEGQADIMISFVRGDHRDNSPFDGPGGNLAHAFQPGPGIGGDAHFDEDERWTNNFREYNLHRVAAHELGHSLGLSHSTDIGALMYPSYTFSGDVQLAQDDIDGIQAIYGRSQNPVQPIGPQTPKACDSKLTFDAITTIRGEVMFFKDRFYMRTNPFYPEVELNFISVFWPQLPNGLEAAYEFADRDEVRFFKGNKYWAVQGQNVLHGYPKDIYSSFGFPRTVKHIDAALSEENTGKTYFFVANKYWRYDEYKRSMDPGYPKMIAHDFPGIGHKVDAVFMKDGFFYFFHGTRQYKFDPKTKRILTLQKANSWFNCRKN

Matrilysin [15] = target: T3, Matrilysin (Homo sapiens, UniProt P09237); assay: Inhibition of recombinant human MMP7 using MOCAc-Pro-Leu-Gly-Leu-A2pr-(Dnp)-Ala-Arg-NH2 as substrate preincubated with compound for 15 mins followed by substrate addition and measured after 2 hrs by fluorescence based analysis
T3 sequence (P09237 whole entry): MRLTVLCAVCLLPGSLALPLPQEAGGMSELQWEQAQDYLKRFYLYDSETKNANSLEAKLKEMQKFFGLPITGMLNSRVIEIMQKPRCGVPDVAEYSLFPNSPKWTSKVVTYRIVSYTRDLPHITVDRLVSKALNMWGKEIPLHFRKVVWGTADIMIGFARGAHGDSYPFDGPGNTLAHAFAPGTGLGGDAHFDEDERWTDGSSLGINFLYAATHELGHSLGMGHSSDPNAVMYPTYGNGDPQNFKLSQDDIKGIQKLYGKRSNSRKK

[16] = target: Matrix metalloproteinase-14 (Homo sapiens, UniProt P50281); assay: Inhibition of recombinant human MMP14 using MOCAc-Lys-Pro-Leu-Gly-Leu-A2pr(Dnp)-Ala-Arg-NH2 as substrate preincubated with compound for 15 mins followed by substrate addition and measured after 1 hrs by fluorescence based analysis
[17] = Metabolic stability in rat hepatocytes assessed as intrinsic clearance at 1 uM incubated for 1 to 4 hrs by LC-MS/MS analysis; assay type: ADME, cell-based, Hepatocyte; conditions: time 1-4 hrs, read-out: CLH (converted)
[18] = Metabolic stability in human liver microsome assessed as intrinsic clearance at 1 uM incubated for 15 mins by LC-MS analysis; assay type: ADME; conditions: liver microsomes, read-out: CLH (converted)
[19] = target: Matrix metalloproteinase-9 (Homo sapiens, UniProt P14780); assay: Inhibition of recombinant human MMP9 using MOCAc-Pro-Leu-Gly-Leu-A2pr-(Dnp)-Ala-Arg-NH2 as substrate preincubated with compound for 15 mins followed by substrate addition and measured after 1 hrs by fluorescence based analysis
Homo sapiens [20] = species: Homo sapiens; assay: Selectivity ratio of IC50 for inhibition of recombinant human MMP2 to IC50 for inhibition of recombinant human MMP7
[21] = Metabolic stability in rat liver microsome assessed as intrinsic clearance at 1 uM incubated for 15 mins by LC-MS analysis; assay type: ADME; conditions: liver microsomes, read-out: CLH (converted)
Collagenase 3 = Collagenase 3 (Homo sapiens, UniProt P45452); assay: Inhibition of recombinant human MMP13 using MOCAc-Pro-Leu-Gly-Leu-A2pr-(Dnp)-Ala-Arg-NH2 as substrate preincubated with compound for 15 mins followed by substrate addition and measured after 1 hrs by fluorescence based analysis
[22] = target: Macrophage metalloelastase (Homo sapiens, UniProt P39900); assay: Inhibition of recombinant human MMP12 using MOCAc-Pro-Leu-Gly-Leu-A2pr-(Dnp)-Ala-Arg-NH2 as substrate preincubated with compound for 15 mins followed by substrate addition and measured after 1 hrs by fluorescence based analysis
[23] = Metabolic stability in human serum assessed as parent compound remaining at 5 uM incubated for 4 hrs by LC-MS/MS analysis; assay type: ADME, cell-free; conditions: read-out: Stability
Mus musculus = assay: Antifibrotic activity against unilateral ureteric obstruction induced C57BL/6J mouse model of renal fibrosis assessed as reduction in renal collagen at 10 to 100 mg/kg/day, SC preadministered with compound for 7 days followed by UUO surgery and measured after 7 days; assay type: functional, organism-based; conditions: dose 10-100 mg/kg/day, time 14.0 day

Stromelysin-1, sequence (P08254 whole entry): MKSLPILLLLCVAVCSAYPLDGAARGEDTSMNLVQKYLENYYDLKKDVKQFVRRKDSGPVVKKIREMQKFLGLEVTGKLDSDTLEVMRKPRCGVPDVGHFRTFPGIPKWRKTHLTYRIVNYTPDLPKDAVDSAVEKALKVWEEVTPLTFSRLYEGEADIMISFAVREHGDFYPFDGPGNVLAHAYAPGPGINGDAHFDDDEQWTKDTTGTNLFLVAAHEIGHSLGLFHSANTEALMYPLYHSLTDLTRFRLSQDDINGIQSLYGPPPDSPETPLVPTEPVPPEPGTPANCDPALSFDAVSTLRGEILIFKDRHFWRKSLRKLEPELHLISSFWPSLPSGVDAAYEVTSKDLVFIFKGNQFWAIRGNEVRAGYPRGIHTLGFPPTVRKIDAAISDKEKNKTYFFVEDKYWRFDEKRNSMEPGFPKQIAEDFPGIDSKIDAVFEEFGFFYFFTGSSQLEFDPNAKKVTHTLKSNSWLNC
72 kDa type IV collagenase, sequence (P08253 whole entry): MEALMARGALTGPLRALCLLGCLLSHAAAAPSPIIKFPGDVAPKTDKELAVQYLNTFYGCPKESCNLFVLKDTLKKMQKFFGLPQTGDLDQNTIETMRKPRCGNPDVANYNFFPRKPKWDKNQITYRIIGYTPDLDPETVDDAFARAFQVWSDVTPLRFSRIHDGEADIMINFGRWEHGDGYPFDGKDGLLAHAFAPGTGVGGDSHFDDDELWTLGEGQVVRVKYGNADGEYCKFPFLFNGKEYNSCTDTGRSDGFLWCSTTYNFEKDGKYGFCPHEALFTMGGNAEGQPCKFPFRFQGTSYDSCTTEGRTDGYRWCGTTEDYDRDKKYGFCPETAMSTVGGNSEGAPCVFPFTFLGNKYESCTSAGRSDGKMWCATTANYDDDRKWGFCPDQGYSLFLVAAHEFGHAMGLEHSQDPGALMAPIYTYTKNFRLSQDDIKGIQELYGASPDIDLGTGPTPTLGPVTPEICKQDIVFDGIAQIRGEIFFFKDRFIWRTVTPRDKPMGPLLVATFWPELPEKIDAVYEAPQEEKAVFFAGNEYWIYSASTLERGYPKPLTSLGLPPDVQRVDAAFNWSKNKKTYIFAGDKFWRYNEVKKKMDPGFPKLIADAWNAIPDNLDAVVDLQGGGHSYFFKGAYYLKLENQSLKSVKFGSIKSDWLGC
Matrix metalloproteinase-9, sequence (P14780 whole entry): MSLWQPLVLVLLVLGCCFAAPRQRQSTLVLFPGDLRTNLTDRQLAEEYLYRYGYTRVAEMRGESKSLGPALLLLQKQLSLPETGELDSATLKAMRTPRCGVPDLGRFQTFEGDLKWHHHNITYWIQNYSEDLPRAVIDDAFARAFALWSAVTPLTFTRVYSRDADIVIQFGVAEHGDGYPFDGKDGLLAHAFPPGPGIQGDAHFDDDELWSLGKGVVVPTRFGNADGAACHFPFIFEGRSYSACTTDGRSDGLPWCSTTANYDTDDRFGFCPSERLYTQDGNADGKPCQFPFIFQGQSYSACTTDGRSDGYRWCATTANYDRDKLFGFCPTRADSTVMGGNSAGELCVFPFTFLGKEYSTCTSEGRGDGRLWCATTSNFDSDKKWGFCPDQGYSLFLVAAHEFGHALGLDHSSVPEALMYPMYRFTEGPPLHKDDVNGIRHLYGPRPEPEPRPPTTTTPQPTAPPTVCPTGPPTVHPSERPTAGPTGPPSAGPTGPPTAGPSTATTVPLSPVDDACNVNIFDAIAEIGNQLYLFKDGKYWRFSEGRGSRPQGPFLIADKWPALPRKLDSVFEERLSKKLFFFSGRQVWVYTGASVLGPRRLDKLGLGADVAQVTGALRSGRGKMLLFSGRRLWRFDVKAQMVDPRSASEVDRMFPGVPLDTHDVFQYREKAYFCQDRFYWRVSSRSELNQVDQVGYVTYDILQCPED
Macrophage metalloelastase, sequence (P39900 whole entry): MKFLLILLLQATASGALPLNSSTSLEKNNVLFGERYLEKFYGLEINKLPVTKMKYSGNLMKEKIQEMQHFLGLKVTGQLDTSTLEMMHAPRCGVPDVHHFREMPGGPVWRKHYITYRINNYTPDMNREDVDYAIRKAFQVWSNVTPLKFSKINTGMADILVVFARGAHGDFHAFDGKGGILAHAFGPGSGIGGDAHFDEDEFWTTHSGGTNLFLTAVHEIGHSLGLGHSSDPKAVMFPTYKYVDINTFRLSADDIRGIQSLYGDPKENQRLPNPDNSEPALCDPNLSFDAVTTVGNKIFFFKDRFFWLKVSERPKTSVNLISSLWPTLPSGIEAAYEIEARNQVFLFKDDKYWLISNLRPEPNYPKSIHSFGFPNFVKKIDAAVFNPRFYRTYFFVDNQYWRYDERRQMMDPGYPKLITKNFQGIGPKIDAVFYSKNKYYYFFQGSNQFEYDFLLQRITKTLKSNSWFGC
Neutrophil collagenase, sequence (P22894 whole entry): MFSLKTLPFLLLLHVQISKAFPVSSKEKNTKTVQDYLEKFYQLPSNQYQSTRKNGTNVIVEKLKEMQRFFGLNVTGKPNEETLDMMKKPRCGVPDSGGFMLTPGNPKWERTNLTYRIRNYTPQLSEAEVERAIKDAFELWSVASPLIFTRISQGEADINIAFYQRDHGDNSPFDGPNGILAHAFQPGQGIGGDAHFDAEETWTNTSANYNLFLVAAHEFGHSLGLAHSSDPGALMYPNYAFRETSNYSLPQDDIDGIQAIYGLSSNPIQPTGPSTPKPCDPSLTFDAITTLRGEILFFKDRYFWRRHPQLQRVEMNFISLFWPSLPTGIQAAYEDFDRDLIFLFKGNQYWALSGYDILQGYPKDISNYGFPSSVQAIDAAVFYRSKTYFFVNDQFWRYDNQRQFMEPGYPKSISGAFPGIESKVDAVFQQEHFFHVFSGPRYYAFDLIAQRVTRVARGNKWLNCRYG

CC(C)(C)[C@H](NC(=O)[C@H](Cc1ccncc1)NC(=O)CNC(=O)CC[C@H](NS(=O)(=O)c1ccc(Cl)c(C(F)(F)F)c1)C(=O)O)C(=O)N1CCC[C@H]1CC(N)=O ({Benzenesulfonyl(4-Cl,3-CF3)-γGlu}-G[4Pal][Tle][β3hP]-NH2)
Ratio IC50 (Homo sapiens [1]): 460
Ratio IC50 (Homo sapiens [2]): > 36000
Ratio IC50 (Homo sapiens [3]): 300
IC50 (Neutrophil collagenase): > 100000 nM
fraction unbound at 4 h [4]: 0.368
Ratio IC50 (Homo sapiens [5]): > 36000
Ratio IC50 (Homo sapiens [6]): > 36000
fraction unbound at 4 h [7]: 0.266
IC50 (Stromelysin-1): > 100000 nM
Ratio IC50 (Homo sapiens [8]): > 36000
Ratio IC50 (Homo sapiens [9]): > 36000
IC50 [10]: 7500 nM
clearance [11]: 85.5 mL/min/kg
logD [12]: 1.04
Vd [13]: 1.09 L/kg
IC50 (Matrilysin [14]): 49 nM
IC50 (Interstitial collagenase): > 100000 nM
IC50 (Matrilysin [15]): 2.8 nM
IC50 [16]: 850 nM
CLint scaled at 1 µM [17]: 11 mL/min/kg
CLint scaled at 1 µM [18]: 13.6 mL/min/kg
IC50 [19]: > 100000 nM
Ratio IC50 (Homo sapiens [20]): 2700
CLint scaled at 1 µM [21]: 23.6 mL/min/kg
IC50 (Collagenase 3): > 100000 nM
IC50 [22]: 1300 nM
remaining at 4 h, 5 µM [23]: 101%
Activity (Mus musculus): Active
